“And” between values parts separate entries of the source, which are not always exact repeats. Identical values can stand only once.
Tested on: 233499-124-R-J3-PDC complex spheroid viability
Assay: Anticancer human tumor 233499-124-R-J3-PDC patient-derived colon adenocarcinoma cell line growth inhibition [CLK]
Conditions: for viability, T/C: stronger effect = lower value
Method in brief: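 Patient-derived tumor cells grown as complex spheroids with HUVEC endothelial cells and mesenchymal stem cells, treated with drug combinations. Concentrations descend in half-log steps from near clinical Cmax, or from 10 microM if Cmax unknown.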
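Further: spheroids exposed to the drug combinations for seven days.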
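Wherever viability, T/C is given: percent viability relative to DMSO vehicle control wells taken as 100%.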

Cn1ncnc1[C@H]1c2n[nH]c(=O)c3cc(F)cc(c23)N[C@@H]1c1ccc(F)cc1
viability, T/C (compound 0.000316 µM): 100% and 107% | viability, T/C (compound 0.001 µM): 85.7% and 92% | viability, T/C (compound 0.00316 µM): 100% and 103% | viability, T/C (compound 0.01 µM): 97.6% and 97.4% | viability, T/C (compound 0.0316 µM): 100% and 97.1% | viability, T/C (compound 0.1 µM): 103% and 96% | IC50 (curve of compound): > 100 nM

Cn1ncnc1[C@H]1c2n[nH]c(=O)c3cc(F)cc(c23)N[C@@H]1c1ccc(F)cc1 + CNC(=O)c1ccc(Nc2nc(OC3CCCC3)c3c(-c4ccc5nc(C)oc5c4)c[nH]c3n2)c(OC)c1
IC50 (curve of first compound, second compound 0.0316 µM): > 100 nM | IC50 (curve of first compound, second compound 0.1 µM): > 100 nM | IC50 (curve of first compound, second compound 0.316 µM): > 100 nM | IC50 (curve of first compound, second compound 1 µM): > 100 nM | IC50 (curve of first compound, second compound 3.16 µM): > 100 nM | IC50 (curve of first compound, second compound 10 µM): > 100 nM | viability, T/C (second compound 0.0316 µM, first compound 0.000316 µM): 91.3% | viability, T/C (second compound 0.0316 µM, first compound 0.001 µM): 96.5% | viability, T/C (second compound 0.0316 µM, first compound 0.00316 µM): 91% | viability, T/C (second compound 0.0316 µM, first compound 0.01 µM): 95.9% | viability, T/C (second compound 0.0316 µM, first compound 0.0316 µM): 110% | viability, T/C (second compound 0.0316 µM, first compound 0.1 µM): 103% | viability, T/C (second compound 0.1 µM, first compound 0.000316 µM): 77.5% | viability, T/C (second compound 0.1 µM, first compound 0.001 µM): 71.4% | viability, T/C (second compound 0.1 µM, first compound 0.00316 µM): 77.2% | viability, T/C (second compound 0.1 µM, first compound 0.01 µM): 71.8% | viability, T/C (second compound 0.1 µM, first compound 0.0316 µM): 78.8% | viability, T/C (second compound 0.1 µM, first compound 0.1 µM): 60.8% | viability, T/C (second compound 0.316 µM, first compound 0.000316 µM): 80.5% | viability, T/C (second compound 0.316 µM, first compound 0.001 µM): 75.5% | viability, T/C (second compound 0.316 µM, first compound 0.00316 µM): 58.6% | viability, T/C (second compound 0.316 µM, first compound 0.01 µM): 57.7% | viability, T/C (second compound 0.316 µM, first compound 0.0316 µM): 66% | viability, T/C (second compound 0.316 µM, first compound 0.1 µM): 64.5% | viability, T/C (second compound 1 µM, first compound 0.000316 µM): 76.5% | viability, T/C (second compound 1 µM, first compound 0.001 µM): 87.3% | viability, T/C (second compound 1 µM, first compound 0.00316 µM): 79.8% | viability, T/C (second compound 1 µM, first compound 0.01 µM): 74.1% | viability, T/C (second compound 1 µM, first compound 0.0316 µM): 56.8% | viability, T/C (second compound 1 µM, first compound 0.1 µM): 59.7% | viability, T/C (second compound 3.16 µM, first compound 0.000316 µM): 67.3% | viability, T/C (second compound 3.16 µM, first compound 0.001 µM): 69% | viability, T/C (second compound 3.16 µM, first compound 0.00316 µM): 69.3% | viability, T/C (second compound 3.16 µM, first compound 0.01 µM): 67.8% | viability, T/C (second compound 3.16 µM, first compound 0.0316 µM): 72.8% | viability, T/C (second compound 3.16 µM, first compound 0.1 µM): 64.8% | viability, T/C (second compound 10 µM, first compound 0.000316 µM): 67.1% | viability, T/C (second compound 10 µM, first compound 0.001 µM): 56.3% | viability, T/C (second compound 10 µM, first compound 0.00316 µM): 74.3% | viability, T/C (second compound 10 µM, first compound 0.01 µM): 73.9% | viability, T/C (second compound 10 µM, first compound 0.0316 µM): 50.5% | viability, T/C (second compound 10 µM, first compound 0.1 µM): 58.1%
